Reference: ChEMBL document CHEMBL3120136 (J Med Chem, 2014)
Converted amounts (≈) assume the structure as drawn.

Key:
[1] = Ratio of EC50 for Hepatitis C virus infected in human HuH7 cells to IC50 for Hepatitis C virus full-length NS3/4A protease; set-up: species or system Huh-7
Hepatitis C virus [2] = assay: Antiviral activity against Hepatitis C virus infected in human HuH7 cells assessed as inhibition of HCV subgenomic replicon replication after 72 hrs by ELISA; format: functional, organism-based, Hepacivirus hominis, Huh-7; conditions: Hepatitis C virus, Huh-7, 72 h; read-out: EC50
[3] = Inhibition of Hepatitis C virus full-length NS3/4A protease assessed as quenched-fluorogenic RET-S1 substrate cleavage incubated for 10 mins prior to substrate addition by FRET analysis; set-up: species or system Hepacivirus hominis
Hepatitis C virus [4] = assay: Antiviral activity against Hepatitis C virus genotype 3 infected in human HuH7 cells assessed as decrease in replicon RNA level after 2 days by TaqMan Gold RT-PCR analysis; format: functional, organism-based, Hepacivirus hominis; conditions: genotype 3, Huh-7, 48 h
Hepatitis C virus [5] = assay: Antiviral activity against Hepatitis C virus genotype 1b infected in human HuH7 cells assessed as decrease in replicon RNA level after 2 days by TaqMan Gold RT-PCR analysis; format: functional, organism-based, Hepacivirus hominis; conditions: Huh-7, 48 h
Hepatitis C virus [6] = assay: Antiviral activity against Hepatitis C virus genotype 2 infected in human HuH7 cells assessed as decrease in replicon RNA level after 2 days by TaqMan Gold RT-PCR analysis; format: functional, organism-based, Hepacivirus hominis; conditions: genotype 2, Huh-7, 48 h
[7] = Inhibition of Hepatitis C virus genotype 3a NS3/4A protease using Ac-DE-Dap(QXL520)-EE-Abu-psi-[COO]-AS-Cys(5-FAMsp)-NH2 as substrate by FRET analysis; set-up: species or system Hepatitis C virus subtype 3a
[8] = Inhibition of Hepatitis C virus genotype 2b NS3/4A protease using Ac-DE-Dap(QXL520)-EE-Abu-psi-[COO]-AS-Cys(5-FAMsp)-NH2 as substrate by FRET analysis; set-up: species or system Hepatitis C virus subtype 2b
[9] = Inhibition of Hepatitis C virus genotype 6 NS3/4A protease using Ac-DE-Dap(QXL520)-EE-Abu-psi-[COO]-AS-Cys(5-FAMsp)-NH2 as substrate by FRET analysis
[10] = Inhibition of Hepatitis C virus genotype 5 NS3/4A protease using Ac-DE-Dap(QXL520)-EE-Abu-psi-[COO]-AS-Cys(5-FAMsp)-NH2 as substrate by FRET analysis
[11] = Inhibition of Hepatitis C virus genotype 4 NS3/4A protease using Ac-DE-Dap(QXL520)-EE-Abu-psi-[COO]-AS-Cys(5-FAMsp)-NH2 as substrate by FRET analysis
[12] = Inhibition of Hepatitis C virus genotype 1b NS3/4A protease using Ac-DE-Dap(QXL520)-EE-Abu-psi-[COO]-AS-Cys(5-FAMsp)-NH2 as substrate by FRET analysis; set-up: species or system Hepatitis C virus subtype 1b
[13] = Inhibition of Hepatitis C virus genotype 1a NS3/4A protease using Ac-DE-Dap(QXL520)-EE-Abu-psi-[COO]-AS-Cys(5-FAMsp)-NH2 as substrate by FRET analysis; set-up: species or system Hepatitis C virus subtype 1a
[14] = Dissociation constant, pKa of the compound; format: physicochemical
Hepatitis C virus [15] = assay: Ratio of EC50 for Hepatitis C virus harboring NS3/4A protease A156T mutant gene to EC50 for Hepatitis C virus harboring wild type NS3/4A protease infected in human HuH7 cells; format: functional, Hepacivirus hominis, Huh-7
Hepatitis C virus [16] = assay: Antiviral activity against Hepatitis C virus harboring NS3/4A protease A156T mutant gene infected in human HuH7 cells assessed as inhibition of HCV subgenomic replicon replication after 72 hrs by ELISA; format: functional, organism-based, Hepacivirus hominis; conditions: Huh-7, 72 h
Hepatitis C virus [17] = assay: Antiviral activity against Hepatitis C virus harboring wild type NS3/4A protease infected in human HuH7 cells assessed as inhibition of HCV subgenomic replicon replication after 72 hrs by ELISA; format: functional, organism-based, Hepacivirus hominis; conditions: Huh-7, 72 h
Hepatitis C virus [18] = assay: Antiviral activity against Hepatitis C virus […] isolate Con1 harboring NS3/4A protease A156T mutant gene infected in human HuH7 cells assessed as inhibition of HCV replicon replication by luciferase assay; format: functional, organism-based, Hepacivirus hominis; conditions: isolate Con1, Huh-7
Hepatitis C virus [19] = assay: Antiviral activity against Hepatitis C virus […] isolate Con1 harboring wild type NS3/4A protease infected in human HuH7 cells assessed as inhibition of HCV replicon replication by luciferase assay; format: functional, organism-based, Hepacivirus hominis; conditions: isolate Con1, Huh-7
NS3 protease = NS3 protease (Hepacivirus C, UniProt C1KIQ2, A156T); assay: Inhibition of Hepatitis C virus genotype 1a NS3/4A protease A156T mutant expressed in Escherichia coli BL21 (DE3) cells assessed as substrate cleavage using Ac-DE-Dap(QXL520)-EE-Abu-psi-[COO]AS-C(5-FAMsp)-NH2 as substrate by plate reader analysis; set-up: species or system Hepatitis C virus subtype 1a
[20] = Inhibition of Hepatitis C virus genotype 1a wild type NS3/4A protease expressed in Escherichia coli BL21 (DE3) cells assessed as substrate cleavage using Ac-DE-Dap(QXL520)-EE-Abu-psi-[COO]AS-C(5-FAMsp)-NH2 as substrate by plate reader analysis; set-up: species or system Hepatitis C virus subtype 1a
[21] = Ratio of AUC (0 to 24 hrs) in liver to plasma in Sprague-Dawley rat at 30 mg/kg, po by HPLC-MS/MS analysis; format: ADME, organism-based; set-up: dose 30 mg/kg, route oral; conditions: Sprague-Dawley, liver and plasma, read-out: Ratio AUC
[22] = AUC (0 to 24 hrs) in Sprague-Dawley rat plasma at 30 mg/kg, po by HPLC-MS/MS analysis; format: ADME, organism-based; set-up: time < 24 hr, dose 30 mg/kg, route oral
[23] = AUC (0 to 24 hrs) in Sprague-Dawley rat liver at 30 mg/kg, po by HPLC-MS/MS analysis; format: ADME, organism-based; set-up: time < 24 hr, dose 30 mg/kg, route oral
[24] = Plasma clearance in rat assessed as extraction ratio; format: ADME, organism-based; conditions: read-out: ERH
[25] = Efflux ratio of permeability from basolateral to apical side over apical to basolateral side in human Caco2 cells; format: ADME, cell-based; conditions: Caco-2
[26] = Permeability from apical to basolateral side of human Caco2 cells; format: ADME, cell-based; conditions: Caco-2, read-out: permeability
[27] = Aqueous solubility of the compound at pH 6.5 by modified shake-flask method; format: physicochemical
[28] = Aqueous solubility of the compound at pH 7.4 by modified shake-flask method; format: physicochemical
[29] = Aqueous solubility of the compound at pH 1.2 by modified shake-flask method; format: physicochemical
[30] = Metabolic stability in dog hepatocytes assessed as extraction ratio at 1 uM; format: ADME, cell-based, Canis lupus familiaris, Hepatocyte; conditions: read-out: ERH
[31] = Metabolic stability in cynomolgus monkey hepatocytes assessed as extraction ratio at 1 uM; format: ADME, cell-based, Macaca fascicularis, Hepatocyte; conditions: read-out: ERH
[32] = Metabolic stability in human hepatocytes assessed as extraction ratio at 1 uM; format: ADME, cell-based, Hepatocyte; conditions: read-out: ERH
[33] = Metabolic stability in rat hepatocytes assessed as extraction ratio at 1 uM; format: ADME, cell-based, Hepatocyte; conditions: read-out: ERH
[34] = Lipophilicity, log D of the compound; format: physicochemical; conditions: octanol/water
[35] = Ratio of drug level in liver to plasma in dog; format: ADME, tissue-based, Canis lupus familiaris; conditions: liver and plasma
[36] = Oral bioavailability in monkey liver; format: ADME, organism-based, Macaca mulatta; conditions: rhesus monkey
[37] = Oral bioavailability in rat liver; format: ADME, organism-based
[38] = target: Voltage-gated inwardly rectifying potassium channel KCNH2 (Homo sapiens, UniProt Q12809); assay: Inhibition of human ERG at 10 uM
Cytochrome P450 3A4 [39] = target: T1, Cytochrome P450 3A4 (Homo sapiens, UniProt P08684); assay: Time-dependent induction of CYP3A4 (unknown origin); format: ADME
Cytochrome P450 3A4 [40] = target: T1, Cytochrome P450 3A4; assay: Inhibition of CYP3A4 (unknown origin); format: ADME
Cytochrome P450 2D6 = Cytochrome P450 2D6 (Homo sapiens, UniProt P10635); assay: Inhibition of CYP2D6 (unknown origin); format: ADME
Cytochrome P450 2C19 = Cytochrome P450 2C19 (Homo sapiens, UniProt P33261); assay: Inhibition of CYP2C19 (unknown origin); format: ADME
Cytochrome P450 2C9 = Cytochrome P450 2C9 (Homo sapiens, UniProt P11712); assay: Inhibition of CYP2C9 (unknown origin); format: ADME
Cytochrome P450 1A2 = target: T2, Cytochrome P450 1A2 (Homo sapiens, UniProt P05177); assay: Inhibition of CYP1A2 (unknown origin); format: ADME
T2 sequence (P05177 whole entry): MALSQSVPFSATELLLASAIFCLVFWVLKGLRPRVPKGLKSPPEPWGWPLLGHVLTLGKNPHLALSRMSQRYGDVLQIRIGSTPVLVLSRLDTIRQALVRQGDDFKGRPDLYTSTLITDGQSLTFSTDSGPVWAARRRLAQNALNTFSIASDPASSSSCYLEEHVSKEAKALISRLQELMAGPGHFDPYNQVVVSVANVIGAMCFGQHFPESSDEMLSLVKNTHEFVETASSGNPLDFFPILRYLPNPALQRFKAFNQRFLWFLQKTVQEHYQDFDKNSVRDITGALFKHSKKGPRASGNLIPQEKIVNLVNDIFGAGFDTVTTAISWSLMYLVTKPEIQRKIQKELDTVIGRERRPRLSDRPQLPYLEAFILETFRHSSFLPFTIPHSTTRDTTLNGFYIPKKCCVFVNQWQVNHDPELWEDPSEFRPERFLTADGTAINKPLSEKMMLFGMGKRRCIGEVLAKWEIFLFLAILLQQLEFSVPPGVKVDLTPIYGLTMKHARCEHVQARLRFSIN

[41] = Cytotoxicity against human MT4 cells; format: cell-based
Rattus norvegicus = assay: Volume of distribution at steady state in Sprague-Dawley rat at 1 mg/kg, iv by HPLC-MS/MS analysis; conditions: in vivo

T1 sequence (P08684 whole entry): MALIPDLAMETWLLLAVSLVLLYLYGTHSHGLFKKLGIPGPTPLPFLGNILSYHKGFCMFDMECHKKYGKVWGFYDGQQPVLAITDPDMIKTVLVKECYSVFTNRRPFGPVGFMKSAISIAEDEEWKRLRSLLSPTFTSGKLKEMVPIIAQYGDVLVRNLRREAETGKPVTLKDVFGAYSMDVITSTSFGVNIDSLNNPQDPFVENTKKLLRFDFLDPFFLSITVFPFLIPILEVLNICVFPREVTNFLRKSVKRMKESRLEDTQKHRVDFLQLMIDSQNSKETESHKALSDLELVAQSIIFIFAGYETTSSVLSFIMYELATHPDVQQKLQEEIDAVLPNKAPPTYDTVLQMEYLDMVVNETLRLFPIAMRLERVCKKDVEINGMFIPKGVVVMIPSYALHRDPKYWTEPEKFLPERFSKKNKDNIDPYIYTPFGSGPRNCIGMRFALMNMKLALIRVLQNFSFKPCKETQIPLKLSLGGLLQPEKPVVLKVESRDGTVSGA
Cytochrome P450 2C19, sequence (P33261 whole entry): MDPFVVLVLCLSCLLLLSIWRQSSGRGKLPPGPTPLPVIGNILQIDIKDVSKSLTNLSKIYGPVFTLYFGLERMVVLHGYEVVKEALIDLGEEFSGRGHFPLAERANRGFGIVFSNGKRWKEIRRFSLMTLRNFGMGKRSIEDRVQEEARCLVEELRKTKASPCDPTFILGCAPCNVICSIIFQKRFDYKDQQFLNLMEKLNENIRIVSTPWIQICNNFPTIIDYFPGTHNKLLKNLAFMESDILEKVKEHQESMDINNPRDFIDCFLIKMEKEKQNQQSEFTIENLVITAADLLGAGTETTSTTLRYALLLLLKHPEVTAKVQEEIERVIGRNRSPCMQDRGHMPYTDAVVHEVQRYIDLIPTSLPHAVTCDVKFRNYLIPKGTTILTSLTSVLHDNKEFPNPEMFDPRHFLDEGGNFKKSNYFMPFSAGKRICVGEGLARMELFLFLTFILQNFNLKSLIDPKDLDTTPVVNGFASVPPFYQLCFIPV
Cytochrome P450 2C9, sequence (P11712 whole entry): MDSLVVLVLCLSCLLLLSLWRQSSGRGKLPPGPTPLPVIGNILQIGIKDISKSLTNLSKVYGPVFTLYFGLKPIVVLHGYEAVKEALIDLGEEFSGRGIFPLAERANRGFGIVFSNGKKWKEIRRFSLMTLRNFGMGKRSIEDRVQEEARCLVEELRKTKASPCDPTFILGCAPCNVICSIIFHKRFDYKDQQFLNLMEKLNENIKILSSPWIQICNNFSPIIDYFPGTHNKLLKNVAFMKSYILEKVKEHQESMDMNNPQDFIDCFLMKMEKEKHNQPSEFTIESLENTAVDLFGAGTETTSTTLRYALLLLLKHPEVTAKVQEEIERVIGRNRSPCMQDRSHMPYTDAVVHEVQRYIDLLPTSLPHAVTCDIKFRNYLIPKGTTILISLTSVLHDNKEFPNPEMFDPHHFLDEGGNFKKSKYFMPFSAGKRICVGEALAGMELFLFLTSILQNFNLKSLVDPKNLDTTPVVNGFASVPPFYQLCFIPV
Voltage-gated inwardly rectifying potassium channel KCNH2, sequence (Q12809 whole entry): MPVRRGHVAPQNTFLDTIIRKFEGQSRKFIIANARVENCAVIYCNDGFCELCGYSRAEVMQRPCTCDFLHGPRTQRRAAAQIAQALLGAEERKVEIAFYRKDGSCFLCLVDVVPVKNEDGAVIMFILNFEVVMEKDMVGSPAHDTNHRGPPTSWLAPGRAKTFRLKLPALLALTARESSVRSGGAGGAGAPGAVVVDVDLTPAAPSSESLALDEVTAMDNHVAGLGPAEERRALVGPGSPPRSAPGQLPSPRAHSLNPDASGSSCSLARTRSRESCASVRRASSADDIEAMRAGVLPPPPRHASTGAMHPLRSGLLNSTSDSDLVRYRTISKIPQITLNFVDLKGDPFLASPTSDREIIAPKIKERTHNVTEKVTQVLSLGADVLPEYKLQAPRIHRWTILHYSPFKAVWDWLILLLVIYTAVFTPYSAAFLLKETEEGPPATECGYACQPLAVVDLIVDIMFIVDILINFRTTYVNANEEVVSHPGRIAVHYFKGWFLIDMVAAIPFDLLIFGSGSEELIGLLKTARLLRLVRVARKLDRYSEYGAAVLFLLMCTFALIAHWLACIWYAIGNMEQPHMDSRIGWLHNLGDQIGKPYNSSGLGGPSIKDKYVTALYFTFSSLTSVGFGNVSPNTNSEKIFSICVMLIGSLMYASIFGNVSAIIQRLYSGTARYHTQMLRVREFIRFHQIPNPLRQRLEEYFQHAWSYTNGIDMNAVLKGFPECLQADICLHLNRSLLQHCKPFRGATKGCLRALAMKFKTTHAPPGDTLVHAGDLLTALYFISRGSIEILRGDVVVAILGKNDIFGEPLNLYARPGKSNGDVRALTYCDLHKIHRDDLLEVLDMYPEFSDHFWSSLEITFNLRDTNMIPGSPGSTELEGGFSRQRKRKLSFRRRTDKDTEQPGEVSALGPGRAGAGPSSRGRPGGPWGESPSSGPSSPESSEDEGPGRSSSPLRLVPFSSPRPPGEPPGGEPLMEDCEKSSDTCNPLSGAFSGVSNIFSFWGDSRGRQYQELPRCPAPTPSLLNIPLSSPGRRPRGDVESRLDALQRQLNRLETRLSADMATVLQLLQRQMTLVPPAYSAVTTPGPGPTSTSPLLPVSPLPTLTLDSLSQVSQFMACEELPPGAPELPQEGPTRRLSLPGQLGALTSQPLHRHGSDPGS
Cytochrome P450 2D6, sequence (P10635 whole entry): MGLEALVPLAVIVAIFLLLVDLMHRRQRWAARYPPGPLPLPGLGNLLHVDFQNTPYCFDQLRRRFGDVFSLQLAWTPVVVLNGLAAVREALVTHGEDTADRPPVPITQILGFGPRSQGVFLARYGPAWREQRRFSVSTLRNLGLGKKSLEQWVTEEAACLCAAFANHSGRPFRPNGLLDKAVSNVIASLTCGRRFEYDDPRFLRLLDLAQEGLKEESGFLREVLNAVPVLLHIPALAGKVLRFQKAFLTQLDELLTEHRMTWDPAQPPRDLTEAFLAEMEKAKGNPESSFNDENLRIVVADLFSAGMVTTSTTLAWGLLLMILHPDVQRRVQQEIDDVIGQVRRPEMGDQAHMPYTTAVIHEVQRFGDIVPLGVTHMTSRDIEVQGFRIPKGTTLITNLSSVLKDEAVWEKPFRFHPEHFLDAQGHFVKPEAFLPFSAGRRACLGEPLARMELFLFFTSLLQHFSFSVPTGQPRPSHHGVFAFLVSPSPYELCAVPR
NS3 protease, sequence (C1KIQ2 entry or part of it A156T): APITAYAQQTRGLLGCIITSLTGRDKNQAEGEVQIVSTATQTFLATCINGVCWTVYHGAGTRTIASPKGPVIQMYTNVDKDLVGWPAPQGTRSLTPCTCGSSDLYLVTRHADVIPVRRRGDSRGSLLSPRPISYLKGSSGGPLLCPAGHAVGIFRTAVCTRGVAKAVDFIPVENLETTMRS

Work on `CC(C)(C)OC(=O)N[C@H]1CCCCC/C=C\[C@@H]2C[C@@]2(C(=O)O)NC(=O)[C@@H]2C[C@@H](OC(=O)N3CCc4ccccc4C3)CN2C1=O` yielded a Ratio [1] of 10, an EC50 (Hepatitis C virus [2]) of 2350 nM and an IC50 [3] of 177 nM.

Work on `CC(C)(C)OC(=O)N[C@H]1CCCCC/C=C\[C@@H]2C[C@@]2(C(=O)NS(=O)(=O)C2CC2)NC(=O)[C@@H]2C[C@@H](OC(=O)N3Cc4cccc(F)c4C3)CN2C1=O` [DANOPREVIR] yielded an EC50 (Hepatitis C virus [4]) of 20 nM, an EC50 (Hepatitis C virus [5]) of 1.6 nM and an EC50 (Hepatitis C virus [6]) of 20 nM. The IC50 [7] was 3.5 nM, the IC50 [8] was 1.6 nM and the IC50 [9] was 0.2 nM. The IC50 [10] was 0.2 nM, the IC50 [11] was 0.2 nM and the IC50 [12] was 0.2 nM. The IC50 [13] was 0.2 nM, the EC50 (Hepatitis C virus [2]) was 2.4 nM and the IC50 [3] was 1 nM. The pKa [14] was 5.27, the “Ratio EC50” value (Hepatitis C virus [15]) was 2 and the EC50 (Hepatitis C virus [16]) was 0.5 nM. The EC50 (Hepatitis C virus [17]) was less than 0.25 nM, the IC50 (Hepatitis C virus [18]) was 5.7 nM and the IC50 (Hepatitis C virus [19]) was 0.24 nM. It also gave a Ki (NS3 protease) of 44.8 nM, a Ki [20] of 1 nM and a Kp [21] of 10. For the same compound, the AUC(0-t) at 24 h [22] was 9500 ng·h/mL, the AUC(0-t) at 24 h [23] was 90800 ng·h/mL and the hepatic extraction ratio [24] was 0.04. The efflux ratio [25] was greater than 2, the Papp A→B [26] was less than 2 ×10⁻⁶ cm/s and the solubility thermodynamic [27] was 548 µg/mL (≈ 749 µM). The solubility thermodynamic [28] was greater than 1000 µg/mL, the solubility thermodynamic [29] was 0.5 µg/mL (≈ 0.683 µM) and the hepatic extraction ratio at 1 µM [30] was 0.23. It also gave a hepatic extraction ratio at 1 µM [31] of 0.54, a hepatic extraction ratio at 1 µM [32] of 0.58 and a hepatic extraction ratio at 1 µM [33] of 0.06. It also gave a logD [34] of 2.1, a Kp [35] of 30 and a bioavailability [36] of 78%. The bioavailability [37] was 15%, the “inhibition (INH)” value [38] was “Not Active” and the Activity (Cytochrome P450 3A4 [39]) was “Not Active”. It also gave an INH (Cytochrome P450 3A4 [40]) of 12 µM, an INH (Cytochrome P450 2D6) greater than 25 µM and an INH (Cytochrome P450 2C19) greater than 25 µM. The INH (Cytochrome P450 2C9) was greater than 25 µM, the INH (Cytochrome P450 1A2) was greater than 25 µM and the CC50 [41] was 54000 nM. The Vdss (Rattus norvegicus) was 0.155 L/kg.
